Ten molecules from PubChem BioAssay (NCI) can be followed below.

Test systems include K-562 leukemia; SF-295 CNS; SR leukemia; HS 578T breast; OVCAR-8 ovarian; SW-620 colon; COLO 205 colon; MOLT-4 leukemia; M14 melanoma; IGROV1 ovarian.
Common to all, as to assay: NCI-60 cell line screen, 48 h

The structures appear in SMILES notation. Where “and” joins values, the source holds several entries; their conditions need not be identical. Equal values may be shown once.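 Tested at 5 concentrations; 48 h exposure; 96-well plates; endpoints linearly interpolated, else capped at highest concentration. GI50 = concentration required for 50% inhibition of growth. TGI marks complete inhibition of growth.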 Some results are limits rather than exact numbers.

`COc1cc(-c2ccc[nH]2)[nH]c1/C=C1\N=C(C)C(CC(=O)OCC(C)(C)C)=C1C`: the GI50 in the assay with K-562 leukemia is 0.34 µM; in the assay with SF-295 CNS it was 0.171 µM; in the assay with SR leukemia, 0.122 µM; in the assay on HS 578T breast, 0.256 µM; with OVCAR-8 ovarian, 0.321 µM; in the assay with SW-620 colon, 0.192 µM. In addition, the GI50 was 0.206 µM with COLO 205 colon, 0.242 µM with MOLT-4 leukemia and 0.212 µM in the assay on M14 melanoma. The TGI was found to be 1.37 µM with K-562 leukemia; 0.51 µM with SF-295 CNS; 0.617 µM with SR leukemia; 1.91 µM with HS 578T breast; 1.44 µM in the assay with OVCAR-8 ovarian; 1.48 µM with SW-620 colon. Also, the TGI in the assay with COLO 205 colon was 1.22 µM; with MOLT-4 leukemia, 1.32 µM; in the assay with M14 melanoma, 0.658 µM.
Consider `Cn1c(I)c(C#C[Si](C)(C)C)c(=O)[nH]c1=O`, for which the GI50 was 1.68 µM with K-562 leukemia; 20 µM in the assay on SF-295 CNS; 3.37 µM in the assay on SR leukemia; 2.3 µM in the assay on HS 578T breast; 12.1 µM with OVCAR-8 ovarian; 1.71 µM in the assay with SW-620 colon. The results for the GI50 in the assay with IGROV1 ovarian, in the assay with COLO 205 colon and with MOLT-4 leukemia were 1.9 µM, 1.87 µM and 2.54 µM, respectively. The TGI in the assay on K-562 leukemia is 4.08 µM; with SF-295 CNS it was 45.8 µM; in the assay with SR leukemia, 5.82 µM; with HS 578T breast it was 7.08 µM; in the assay with OVCAR-8 ovarian, 25.6 µM; in the assay with SW-620 colon it was 3.23 µM. For the same molecule, the results for the TGI in the assay with IGROV1 ovarian, with COLO 205 colon and in the assay on MOLT-4 leukemia were 3.63 µM, 3.69 µM and 5.76 µM, respectively.
Take `CNc1cc(-c2cccc(OC(F)(F)F)c2)nc2ccc(N3CCCC3)cc12`: the GI50 in the assay on K-562 leukemia was 0.884 µM; in the assay with SF-295 CNS, 1.61 µM and 1.75 µM and 1.68 µM; with SR leukemia, 0.31 µM and 1.56 µM; with HS 578T breast it was 1.87 µM; in the assay on OVCAR-8 ovarian, 1.8 µM and 1.81 µM and 1.82 µM; in the assay on SW-620 colon, 1.56 µM and 1.84 µM and 1.75 µM. In addition, the GI50 in the assay with IGROV1 ovarian is 1.57 µM and 1.74 µM and 1.72 µM; with COLO 205 colon, 1.84 µM and 1.81 µM; in the assay on MOLT-4 leukemia, 2.06 µM and 1.81 µM and 1.56 µM; in the assay with M14 melanoma, 1.64 µM and 1.72 µM and 1.69 µM. Further, the TGI is 3.61 µM in the assay on K-562 leukemia; 2.98 µM and 3.2 µM and 3.09 µM in the assay on SF-295 CNS; 1.78 µM and 4.22 µM in the assay on SR leukemia; 3.95 µM in the assay on HS 578T breast; 3.5 µM and 3.39 µM and 3.55 µM with OVCAR-8 ovarian; 3.08 µM and 3.79 µM and 3.6 µM in the assay on SW-620 colon. Further, the TGI in the assay on IGROV1 ovarian is 3.08 µM and 3.39 µM and 3.25 µM; with COLO 205 colon it was 3.58 µM and 3.29 µM; in the assay on MOLT-4 leukemia, 4.26 µM and 4.18 µM and 3.6 µM; in the assay with M14 melanoma, 3.04 µM and 3.24 µM and 3.14 µM.
Consider `O=C(CI)Nc1ccc(Br)cc1`, for which the GI50 in the assay with K-562 leukemia is 2.53 µM; in the assay with SF-295 CNS, 11.2 µM; in the assay with SR leukemia, 0.365 µM; in the assay on HS 578T breast, 5.05 µM; in the assay on OVCAR-8 ovarian, 2.46 µM; in the assay on IGROV1 ovarian, 2.35 µM. In addition, the GI50 with COLO 205 colon is 1.85 µM; with MOLT-4 leukemia, 3.43 µM; in the assay with M14 melanoma it was 1.92 µM. Besides, the TGI in the assay on K-562 leukemia was greater than 100 µM; in the assay on SF-295 CNS, 30.7 µM; with SR leukemia it was greater than 100 µM; in the assay with HS 578T breast, greater than 100 µM; with OVCAR-8 ovarian, 5.95 µM; with IGROV1 ovarian, 4.88 µM. In addition, the TGI was 3.7 µM in the assay on COLO 205 colon, greater than 100 µM with MOLT-4 leukemia and 3.85 µM in the assay on M14 melanoma.
In the case of `CSc1ccc(C(=O)/C=C/c2ccc(Cl)cc2Cl)cc1`, the GI50 in the assay with K-562 leukemia was 6.48 µM; in the assay on SF-295 CNS it was 29.5 µM; in the assay with SR leukemia it was 0.351 µM; with HS 578T breast it was 28.6 µM; in the assay on OVCAR-8 ovarian it was 20.3 µM; in the assay on SW-620 colon it was 22.2 µM. The GI50 with IGROV1 ovarian was 15.6 µM; with MOLT-4 leukemia, 16.4 µM; with M14 melanoma it was 21.6 µM. For the same molecule, the TGI in the assay on K-562 leukemia is 49.5 µM; in the assay on SF-295 CNS, greater than 100 µM; in the assay on SR leukemia it was 0.909 µM; in the assay with HS 578T breast it was 68.4 µM; in the assay with OVCAR-8 ovarian, 43.4 µM; in the assay with SW-620 colon, 56 µM. Moreover, the TGI was 31.9 µM with IGROV1 ovarian, 33.9 µM in the assay on MOLT-4 leukemia and 59.6 µM in the assay on M14 melanoma.
Consider `O=C1Cc2cc(CCN3CCNCC3)c(Cl)cc2N1`, for which the GI50 is 6.24 µM in the assay on K-562 leukemia; 4.2 µM with SF-295 CNS; 6.2 µM with SR leukemia; 1.57 µM in the assay with HS 578T breast; 36.8 µM with OVCAR-8 ovarian; 4.98 µM in the assay on SW-620 colon. Also, the values for the GI50 with COLO 205 colon, with MOLT-4 leukemia and in the assay with M14 melanoma were 19.7 µM, greater than 100 µM and 3.02 µM, respectively. Besides, the TGI in the assay on K-562 leukemia, with SF-295 CNS, in the assay on SR leukemia, in the assay on HS 578T breast, in the assay on OVCAR-8 ovarian and in the assay with SW-620 colon was greater than 100 µM throughout. The TGI in the assay on COLO 205 colon is greater than 100 µM; in the assay on MOLT-4 leukemia, greater than 100 µM; in the assay with M14 melanoma, 26.5 µM.
In the case of `CCC(c1ccccc1)c1cc(C(C)(C)C)cc(C(C)(C)C)c1O` (stereo not given), the TGI in the assay on K-562 leukemia is 34 µM; with SF-295 CNS, 26.9 µM; in the assay with SR leukemia, greater than 100 µM; in the assay with HS 578T breast it was 32.3 µM; in the assay on OVCAR-8 ovarian, 31.1 µM; with SW-620 colon, 30.5 µM. Moreover, the TGI with IGROV1 ovarian came to 30.7 µM; in the assay with COLO 205 colon, 34.2 µM; in the assay on M14 melanoma, 33.9 µM.
Consider `COc1ccc2c(c1)/C(=N/OC(C)=O)c1c-2c(OC)nc2ccccc12`, for which the GI50 in the assay with K-562 leukemia was greater than 100 µM; with SF-295 CNS, greater than 100 µM; in the assay with SR leukemia, 21.6 µM; in the assay with HS 578T breast, 48.1 µM; in the assay on OVCAR-8 ovarian it was greater than 100 µM; in the assay with SW-620 colon, greater than 100 µM. For the same molecule, the GI50 with COLO 205 colon, with MOLT-4 leukemia and with M14 melanoma was greater than 100 µM throughout. The TGI with K-562 leukemia, in the assay with SF-295 CNS, with SR leukemia, with HS 578T breast, in the assay on OVCAR-8 ovarian and in the assay with SW-620 colon was greater than 100 µM each time. Also, the TGI in the assay with COLO 205 colon, in the assay on MOLT-4 leukemia and in the assay on M14 melanoma was greater than 100 µM each time.
Take `C=CCSC(C)=O`: the TGI in the assay with K-562 leukemia, in the assay with SF-295 CNS, in the assay on SR leukemia, with HS 578T breast, with OVCAR-8 ovarian and in the assay on SW-620 colon was greater than 100 µM throughout. In addition, the TGI in the assay with IGROV1 ovarian, in the assay on COLO 205 colon and in the assay with M14 melanoma was greater than 100 µM each time.
In the case of `COc1ccc(/C=C/c2ccnc3ccccc23)cc1OC`, the TGI was found to be 22.1 µM with K-562 leukemia; 46.8 µM in the assay on SF-295 CNS; 54.2 µM in the assay with SR leukemia; 81.6 µM in the assay with HS 578T breast; 29.1 µM with SW-620 colon; 28.9 µM in the assay on IGROV1 ovarian. Moreover, the TGI in the assay on COLO 205 colon came to 27.1 µM; with MOLT-4 leukemia, 45.1 µM; in the assay with M14 melanoma it was 34.9 µM.
